{
  "source": "patent US10537535B2",
  "about": "“Histone deacetylase inhibitors” (The Regents of the University of California, priority 2015, dated 2020)",
  "key": {"[1]": {"system": "H3K9 acetylation in HEK293 cells", "test": "Western blot of histone acetylation in HEK293 nuclear extracts: H3K9", "format": "cell-based, human", "protocol": "The effect of diacetyl on histone acetylation was further investigated using direct analysis of histone 3K9 acetylation in HEK cells. In vivo activity of diacetyl was determined by gel electrophoresis chromatography of HEK cell lysate exposed to 0 μM, 1 μM and 10 μM of diacetyl (odor 1) in whole HEK cell lysates. […] Proliferating cell nuclear antigen (PCNA; 29 kDa) is a nuclear protein included as a loading control for nuclear protein extracts.\nIn order to test whether diacetyl can increase acetylation of histones in vivo, human HEK293 cells were used, which offer a tractable system to prepare nuclear extracts. The cells were exposed to different doses of diacetyl for 2 or 6 hours, and monitored histone acetylation levels by Western blot analysis from nuclear extract. […] The acetylation levels of H3K14 and H4K5 were not affected (FIG. 5A).\nHuman embryonic kidney 293 (HEK293) cells were grown in 100 mm cell culture dishes with Dulbecco's modified Eagle's medium (DMEM) (10-013, Corning, Manassas, Va.), supplemented with 10% fetal bovine serum (FBS) (26140-079, Gibco, Carlsbad, Calif.) at 37° C. with 5% CO2. Cells that were ˜80% confluent were treated with freshly-prepared medium supplemented with diacetyl at concentrations indicated. In order to prevent diffusion of diacetyl odor from the treatment dishes to the outside environment, the cell culture dishes were put into a custom-made container (155.6×155.6×85.7 mm) with a charcoal filter top. The cells for non-treatment controls were handled in the same manner without adding diacetyl to the medium.\nNuclear extracts of HEK293 cells were prepared according to a protocol described previously (Andrews and Faller, 1991), with minor modifications. In brief, HEK293 cells were washed twice with cold phosphate-buffered saline (PBS) and lysed with hypotonic buffer (10 mM HEPES-KOH [pH 7.9], 1.5 mM MgCl2, 10 mM KCl, protease inhibitor cocktail [Roche], 1 mM DTT, 1 mM TSA). Following a brief centrifugation, the pellet was resuspended in hypertonic buffer (20 mM HEPES-KOH [pH 7.9], 25% glycerol, 420 mM NaCl 1.5 mM MgCl2, 0.2 mM EDTA, protease inhibitor cocktail (04693159001, Roche, Indianapolis, Ind.), 1 mM DTT, 1 mM TSA). The supernatant was recovered as nuclear extract.\nProteins in the nuclear extracts (60 μg protein) were separated by SDS-PAGE gels (456-1043, Bio-Rad, Hercules, Calif.), transferred onto PVDF membranes (162-0174, Bio-Rad), and incubated with anti-histone antibodies: acetylated H3K9 (1/2000: ab4441, abeam, Cambridge, Mass.), acetylated H3K14 (1/5000: 06-911, EMD Millipore, Billerica, Mass.), acetylated H4K5 (1/2000: 07-327, EMD Millipore). Bound antibody was detected by horseradish peroxidase-conjugated anti-rabbit secondary antibody (1/20000: 1705046, Bio-Rad) and developed using Clarity™ Western ECL Substrate (1705060, Bio-Rad). Signals were detected and captured by ImageQuant™ LAS 4000 mini (GE healthcare, Pittsburgh, Pa.), and band intensities were quantified with ImageJ software. H3K9 acetylation intensity in individual lanes was reported relative to the normalized Mock treatment (Mock H3K9ace/Mock PCNA), and calculated using this formula: Relative H3K9ace intensity for each timepoint=(Diacetyl H3K9ace/diacetyl PCNA)/(Mock H3K9ace/Mock PCNA)."}, "[2]": {"system": "Gr63a", "test": "Whole mount RNA in situ of adult Drosophila antenna Gr63a", "format": "in vivo", "conditions": "5 days; odor 1 1% on filter paper, sodium butyrate 10 mM fed; vs untreated or mock", "protocol": "For five days, Drosophila were exposed to 1% diacetyl (odor 1) on filter paper; fed known HDAC inhibitor sodium butyrate (Na-but; 10 mM); or fed known HDAC inhibitor valproic acid (10 mM)."}, "[3]": {"biological_target": "T1, human HDAC1 (Homo sapiens, UniProt Q13547)", "T1 construct": "purchased Cayman Chemical 10011563", "T1 sequence (Q13547 whole entry)": "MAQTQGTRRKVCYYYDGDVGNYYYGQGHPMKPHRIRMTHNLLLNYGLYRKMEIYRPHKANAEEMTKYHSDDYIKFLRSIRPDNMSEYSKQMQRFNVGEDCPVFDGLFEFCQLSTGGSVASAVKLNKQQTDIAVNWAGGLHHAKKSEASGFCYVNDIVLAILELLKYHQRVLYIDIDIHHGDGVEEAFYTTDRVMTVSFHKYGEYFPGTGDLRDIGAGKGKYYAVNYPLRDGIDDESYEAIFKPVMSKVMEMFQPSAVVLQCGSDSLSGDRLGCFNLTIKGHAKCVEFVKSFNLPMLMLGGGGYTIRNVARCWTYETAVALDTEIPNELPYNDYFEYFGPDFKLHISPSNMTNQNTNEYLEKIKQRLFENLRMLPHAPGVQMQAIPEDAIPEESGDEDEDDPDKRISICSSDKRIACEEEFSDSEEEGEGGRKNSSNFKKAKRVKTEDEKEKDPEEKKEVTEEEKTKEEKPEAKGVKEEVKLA", "test": "Fluorometric HDAC activity assay, purified human HDAC1", "format": "biochemical", "protocol": "The ability of diacetyl (odor 1) to inhibit human HDAC activity was investigated using in-vitro assays with a human HDAC1 kit.\nIn order to directly test whether diacetyl acts as an inhibitor of HDACs, in vitro acetylation assays was performed with purified human HDACs. […]\nHDAC activity of class I HDACs (HDAC1, 2, 3 and 8) was measured with the fluorometric HDAC Activity Assay kit: HDAC1 (10011563, Cayman Chemical, Ann Arbor, Mich.), HDAC2, HDAC 3 and HDAC 8 (50062, 50073 and 50068, BPS Bioscience, San Diego, Calif.), according to the manufacturer's instructions."}},
  "data": [
    {"molecule": "CC(=O)C(C)=O", "note": "[diacetyl, 2,3-Butanedione]", "values": [
      {"measurement": "H3K9 acetylation level", "setting": "[1]; 100 μM, 120 hrs", "result": "significantly higher levels"},
      {"measurement": "H3K9 acetylation level", "setting": "[1]; 100 μM, prolonged exposure 3-5 days, onset", "result": "increased only after 96 hrs"},
      {"measurement": "H3K9 acetylation level", "setting": "[1]; 1 mM, 2 or 6 hours", "result": "did not alter"},
      {"measurement": "H3K9 acetylation level", "setting": "[1]; 10 mM, 2 hours, vs mock", "result": "significantly increased"},
      {"measurement": "H3K9 acetylation level", "setting": "[1]; 10 mM, 6 hours", "result": "further increased"},
      {"measurement": "level of acetyl H3K9 (H3K9Ace)", "setting": "[1]; HEK cells, 0 μM, 1 μM and 10 μM, FIG. 1D", "result": "increased with increasing concentrations"},
      {"measurement": "Gr63a expression in antenna (RNA in situ)", "setting": "[2]", "result": "over-expression"},
      {"measurement": "inhibition of human HDAC activity (human HDAC1 kit)", "setting": "[3]; compared with sodium butyrate, FIG. 1C", "result": "effective HDAC inhibitor and comparable to sodium butyrate"},
      {"measurement": "IC50", "setting": "[3]; purified human HDAC1, n=4-5", "result": 7.2, "unit": "mM"}
    ]}
  ]
}
